Measured values: PMC5312290, “Momordin Ic, a new natural SENP1 inhibitor, inhibits prostate cancer cell proliferation” (Oncotarget, 2016)
pIC50: −log10 of the molar value.

Biological target: SUMO-specific protease 1 (SENP1) (Homo sapiens, UniProt Q9P0U3)
Sequence (Q9P0U3 419-644 limits assumed): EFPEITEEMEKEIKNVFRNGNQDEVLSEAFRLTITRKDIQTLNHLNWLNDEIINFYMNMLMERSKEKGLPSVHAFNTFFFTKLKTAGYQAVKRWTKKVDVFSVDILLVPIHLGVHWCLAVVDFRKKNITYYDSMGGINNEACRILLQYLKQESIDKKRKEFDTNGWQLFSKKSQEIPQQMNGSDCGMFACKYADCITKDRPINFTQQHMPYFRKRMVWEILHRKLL

`CC1(C)CC[C@]2(C(=O)O)CC[C@]3(C)C(=CC[C@@H]4[C@@]5(C)CC[C@H](O[C@@H]6O[C@H](C(=O)O)[C@@H](O)[C@H](O[C@@H]7OC[C@@H](O)[C@H](O)[C@H]7O)[C@H]6O)C(C)(C)[C@@H]5CC[C@]43C)[C@@H]2C1` [Mc, Momordin Ιc] was tested. Which pIC50 did it give?
Its pIC50 is 4.81.
